Where two headings read alike, the source gives them in different places.
How the values were obtained:
[1] = target: T1, XPO1 protein (Homo sapiens, UniProt O14980); assay: Inhibitory activity for XPO1 protein (NES-GFP nuclear export, laser confocal microscope); assay type: cell-based; details: NES-GFP nuclear export, cells treated for 2 hours
T1 construct: Sixteen hours later, NES-GFP plasmid was transfected with liposome; endogenous in cells
Text: NES (nuclear export signal) is a nuclear export signal peptide recognized by XPO1 protein. XPO1 recognizes NES sequence peptide segment of biomacromolecule and exports the biomacromolecule out of nucleus. NES-GFP protein is obtained by co-expressing green fluorescence protein GFP and NES sequence peptide segment by using a eukaryotic expression plasmid. Inhibitory activity of the representative compound for XPO1 protein can be assessed by detecting influence of the compound on NES-GFP cell localization.
The cells were digested with trypsin, counted, and inoculated on 96-well plate in an amount of 1.5×10^4 cells per well. Sixteen hours later, NES-GFP plasmid was transfected with liposome.

[2] = test system: IBD animal model; assay: Macroscopic pathological changes of IBD animal model (enteroclysis with TNBS); assay type: in vivo, SD rats; details: 80 mg/kg intragastrically daily, TNBS rats, score 0-5, 10 animals
Description: Eight-week-old male SD rats (10 rats per group) were fasted for 24 hours and anaesthetized with diethyl ether. 50% ethanol and TNBS (2,4,6-trinitrobenzenesulfonic acid) were mixed to prepare a solution. In the IBD model group, a tube made of vinyl resin was inserted 5 cm from anus, and enteroclysis was performed with the TNBS solution in a dose of 100 mg/kg. The rats were hung upside down 30 seconds later after the enteroclysis to ensure no leakage of the TNBS solution. In the control group, the TNBS solution was replaced with normal saline with which enteroclysis was performed. Seven days later after the enteroclysis with the TNBS solution or normal saline, animals were sacrificed and dissected. […] Two weeks later after treated with the drugs, the animals were sacrificed and dissected, and large intestine thereof was taken out and fixed in 4% formalin solution for 30 minutes. The large intestine of the animals was cut lengthwise from the mesentery side to take photos for rectum portion and measure the weight of rectum. Based on the macroscopic observation and judgment score (Table 2-1), ulceration and bleeding states of rectum portion were scored according to the macroscopic observation scoring standard.

[3] = test system: HMLE-Snail cell line; assay: Formation of HMLE-Snail cell line spheroids; assay type: cell-based; details: read-out: Colony (%): cell colony number of drug-treated group/cell colony number of control group × 100%
Description: HMLE-Snail cell line is one of most classic cell models for studying tumor cell metastasis and EMT path. HMLE-Snail cell line highly expresses Snail protein, and thus one of most remarkable features thereof is that it has spherical cellular morphology (spheroid). […] The HMLE-Snail cell line used in the present invention was donated by Dr. Robert Weinberg from America Massachusetts Whitehead Institute. HMLE-Snail cells were suspended in a liquid culture medium (in which B-27 and N-2 were added, purchased from America Invitrogen Corporation) containing DMEM/F12 in a ratio of 1:1, in an amount of 1.0×10^3 cells/ml, and cultured in an ultra low attachment culture plate so as to allow spheroids to be formed. Seven days later, spheroids were collected by centrifugation, and counted. […] Docetaxel is a common clinical chemotherapy drug.

[4] = test system: NCI-H1650; assay: cells; assay type: cell-based; details: Homo sapiens
Description: (§1) NCI-H1975 and NCI-H1650 are two typical high metastasis type lung cancer cell lines. The therapeutic effect of the representative compound for the metastasis type lung cancers can be preliminarily assessed by detecting the inhibitory activity of the representative compound for the two cell lines. The lung cancer cell line was inoculated on 96-well cell culture plate in an amount of 6000 cells per well and cultured at 37° C. for 24 hours, and then treated solely with the compound added therein and cultured. Seventy-two hours later, MTT or CCK-8 method was used to detect the inhibitory activity of the compound for the two lung cancer cell lines.

[5] = test system: NCI-H1975; assay: cells; assay type: cell-based; details: Homo sapiens
Description: as §1

[6] = test system: HCT116; assay: Inhibitory activity for high metastasis type colon cancer cell line (MTT or CCK-8); assay type: cell-based; details: Homo sapiens
Description: (§2) SW620 and HCT116 are two typical high metastasis type colon cancer cell lines. The colon cancer cell line was inoculated on 96-well cell culture plate in an amount of 6000 cells per well and cultured at 37° C. for 24 hours, and then treated solely with the compound added therein and cultured. Seventy-two hours later, MTT or CCK-8 method was used to detect the inhibitory activity of the compound for the two high metastasis type colon cancer cell lines.

[7] = test system: SW620; assay: as above; assay type: cell-based; details: Homo sapiens
Description: as §2

[8] = test system: Jeko-1; assay: Inhibitory activity for high metastasis type lymphoma cell line (MTT or CCK-8); assay type: cell-based; details: Homo sapiens
Description: (§3) Jeko-1, Raji and U2932 are three typical high metastasis type lymphoma cell lines. The lymphoma cell line was inoculated on 96-well cell culture plate in an amount of 6000 cells per well and cultured at 37° C. for 24 hours, and then treated solely with the compound added therein and cultured. Seventy-two hours later, MTT or CCK-8 method was used to detect the inhibitory activity of the compound for the two high metastasis type lymphoma cell lines.

[9] = test system: Raji; assay: as above; assay type: cell-based; details: Homo sapiens
Description: as §3

[10] = test system: U2932; assay: as above; assay type: cell-based; details: Homo sapiens
Description: as §3

[11] = test system: SK-OV3 (high metastasis type ovarian cancer cell line); assay: Ovarian cancer intraperitoneal metastasis animal model; assay type: in vivo, nudemice (BALB/c-nu/nu); details: Mus musculus, SK-OV-3, ip; for response vs control in vivo at 80 mg/kg: 504 h, read-out: T/C (%); for mortality at 80 mg/kg: 720 h, six mice per group, read-out: Mortality (within 30 days) (converted)
Description: The ovarian cancer intraperitoneal metastasis animal model is one of most classic animal models for studying anti-ovarian cancer metastasis drug. Sixty 5 to 6-week-old female nudemice with similar weight (BALB/c-nu/nu) were chosen. SK-OV3 (high metastasis type ovarian cancer cell line) stably expressing green fluorescence protein was screened, and prepared into a cell suspension of 2×10^6 cells/100 μl with serum-free PRMI1640 medium. […] Three weeks later, the cancer was detected with a small animal in vivo imaging apparatus (Xenogen, School of Medicine, Shanghai Jiaotong University) and photos thereof were taken. […] In the table, T represents the drug-treated group, and C represents the blank control group. T/C is (V/V0 of compound-treated group)/(V/V0 of blank control group) in which V represents the cancer volume of mouse on the day the detection was performed, and V0 represents the cancer volume of mouse on the day the administration begun.

[12] = test system: TNF-α; assay: Serum TNF-α level of IBD animal model (ELISA); assay type: in vivo, SD rats; details: 80 mg/kg, three days after making the TNBS model
Text: (§4) Inflammatory bowel disease is an autoimmune disease. […] The therapeutic effect of the representative compound for the immune system disease or inflammation can be assessed by detecting change in levels of some important cytokines such as TNF-α and IL-6 at downstream of the signal path.

[13] = test system: IL-6; assay: Serum IL-6 level of IBD animal model (ELISA); assay type: in vivo, SD rats; details: 80 mg/kg, three days after making the TNBS model
Text: as §4

[14] = test system: A2780; assay: Inhibitory activity for high metastasis type ovarian cancer cell line (MTT or CCK-8); assay type: cell-based; details: Homo sapiens; A2780, 72 hours; read-out: IC50
Description: (§5) The two cell lines were inoculated on 96-well cell culture plate in an amount of 6000 cells per well and cultured at 37° C. for 24 hours, and then treated solely with the representative compound added therein and cultured. Seventy-two hours later, MTT or CCK-8 method was used to detect the inhibitory activity of the representative compound for the high metastasis type ovarian cancer cell lines.

[15] = test system: HO-8910; assay: as above; assay type: cell-based; details: HO-8910, 72 hours; read-out: IC50
Description: as §5

[16] = 10 μg/ml, treated for 24 hours, control = 100
[17] = Jeko-1, 72 hours, read-out: IC50
[18] = U2932, 72 hours, read-out: IC50

T1 sequence (O14980 whole entry, species assumed): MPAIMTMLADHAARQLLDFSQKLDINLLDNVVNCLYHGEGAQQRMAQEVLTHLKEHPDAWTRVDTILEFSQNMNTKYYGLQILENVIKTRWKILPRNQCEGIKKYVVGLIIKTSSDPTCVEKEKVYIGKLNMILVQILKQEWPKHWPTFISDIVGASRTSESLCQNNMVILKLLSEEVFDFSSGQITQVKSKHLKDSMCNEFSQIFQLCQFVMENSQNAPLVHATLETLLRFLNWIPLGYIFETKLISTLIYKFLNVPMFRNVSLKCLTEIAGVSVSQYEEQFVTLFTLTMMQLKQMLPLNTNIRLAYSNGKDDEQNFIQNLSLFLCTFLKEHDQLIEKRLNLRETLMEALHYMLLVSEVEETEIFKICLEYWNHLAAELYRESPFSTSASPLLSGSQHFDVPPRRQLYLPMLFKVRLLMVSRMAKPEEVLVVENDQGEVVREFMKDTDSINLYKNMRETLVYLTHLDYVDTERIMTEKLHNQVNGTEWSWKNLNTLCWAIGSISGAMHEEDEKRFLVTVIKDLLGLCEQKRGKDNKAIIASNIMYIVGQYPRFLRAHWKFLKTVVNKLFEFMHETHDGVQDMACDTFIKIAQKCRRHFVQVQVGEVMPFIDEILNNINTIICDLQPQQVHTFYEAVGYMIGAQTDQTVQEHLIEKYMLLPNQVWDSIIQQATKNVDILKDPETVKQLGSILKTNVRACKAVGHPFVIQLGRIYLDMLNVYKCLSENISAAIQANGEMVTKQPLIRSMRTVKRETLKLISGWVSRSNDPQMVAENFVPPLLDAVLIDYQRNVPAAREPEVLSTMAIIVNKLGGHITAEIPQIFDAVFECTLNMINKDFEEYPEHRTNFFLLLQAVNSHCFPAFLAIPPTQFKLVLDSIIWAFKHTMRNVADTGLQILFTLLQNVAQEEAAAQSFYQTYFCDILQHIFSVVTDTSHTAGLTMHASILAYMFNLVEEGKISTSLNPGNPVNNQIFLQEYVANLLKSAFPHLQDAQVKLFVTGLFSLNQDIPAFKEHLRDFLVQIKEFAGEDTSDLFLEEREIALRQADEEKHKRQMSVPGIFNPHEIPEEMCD

SMILES | Activity (μM): inhibitory activity for XPO1 protein (full inhibitory concentration) [1] | Macroscopic pathological score [2] | mortality at 80 mg/kg [11] | Serum TNF-α level, Animal-1 [12] | Serum TNF-α level, Animal-2 [12] | Serum TNF-α level, Animal-3 [12] | Serum IL-6 level, Animal-1 [13] | Serum IL-6 level, Animal-2 [13] | Serum IL-6 level, Animal-3 [13] | activity at 10 µg/mL [3, 16] | IC50 [8, 17] | IC50 ([9]; 72 hours, read-out: IC50) | IC50 [10, 18] | IC50 [14] | IC50 [15] | other results
[O-][S+](/C=C/CCN=C=S)c1cc(C(F)(F)F)cc(C(F)(F)F)c1 (centres unmarked) [Compound I-04] | 0.250 µM | 1.0 ± 0.5 | 0% |  |  |  |  |  |  |  |  |  |  |  |  | activity at 10 µg/mL ([3]; 24 h): 10 to 15%; IC50 ([4]; NCI-H1650, 72 h): 0.08 µM; IC50 ([5]; NCI-H1975, 72 h): 0.09 µM; IC50 ([6]; HCT-116, 72 h): 0.07 µM; IC50 ([7]; SW-620, 72 h): 0.09 µM; IC50 ([8]; JeKo-1, 72 h): 0.05 µM; IC50 ([9]; 72 h): 0.06 µM; IC50 ([10]; U2932, 72 h): 0.09 µM; response vs control in vivo at 80 mg/kg [11]: 19%
COc1cc([S+]([O-])/C=C/CCN=C=S)cc(OC)c1OC (centres unmarked) [Compound I-06] | 0.200 µM | 1.0 ± 0.1 |  | 0.9 ng/mL | 0.6 ng/mL | 0.5 ng/mL | 0.7 ng/mL | 0.5 ng/mL | 0.3 ng/mL | 10 to 15% | 0.07 µM | 0.1 µM | 0.17 µM |  |  | IC50 ([6]; HCT-116, HCT116, 72 hours, read-out: IC50): 0.1 µM; IC50 ([7]; SW-620, SW620, 72 hours, read-out: IC50): 0.15 µM
[O-][S+](/C=C/CCN=C=S)c1nnnn1-c1ccccc1 (centres unmarked) [Compound I-25] |  | 1.5 ± 0.3 |  | 1.0 ng/mL | 0.5 ng/mL | 0.8 ng/mL | 0.6 ng/mL | 0.7 ng/mL | 0.5 ng/mL | 10 to 15% | 0.15 µM | 0.18 µM | 0.25 µM | 0.7 µM | 0.3 µM | IC50 ([4]; NCI-H1650, 72 hours, read-out: IC50): 0.22 µM; IC50 ([5]; NCI-H1975, 72 hours, read-out: IC50): 0.25 µM
[O-][S+](/C=C/CCN=C=S)c1ccc(Oc2ccccc2)cc1 (centres unmarked) [Compound I-27] | 0.5 to 1 µM |  | 0% |  |  |  |  |  |  | 25 to 30% |  |  |  | 1.2 µM | 0.8 µM | response vs control in vivo at 80 mg/kg ([11]; 80 mg/kg intraperitoneal injection once a day for 3 weeks): 25%
